From ChEMBL document CHEMBL1133429, “Resistance-modifying agents. Part 7: 2,6-disubstituted-4,8-dibenzylaminopyrimido[5,4-d]pyrimidines that inhibit nucleoside transport in the presence of alpha1-acid glycoprotein (AGP)” (2000)

How the values were obtained:
[1] = test system: L1210; assay: Inhibition of [3H]thymidine uptake into L1210 cells at a concentration of 1 uM; type: functional; settings: Mus musculus
[2] = test system: L1210; assay: Reduction of [3H]thymidine uptake into L1210 cells at a concentration of 1 uM; type: functional, Mus musculus
[3] = test system: L1210; assay: Compound was tested for inhibition of [3H]thymidine uptake into L1210 cells at a concentration of 10 uM; type: functional; settings: Mus musculus

COc1ccc(CN(C)c2nc(N(CCO)CCO)nc3c(N(C)Cc4ccc(OC)cc4)nc(N(CCO)CCO)nc23)cc1
inhibition at 1 µM [1]: 75% | Reduction [2]: 47%

COc1ccc(CNc2nc(OCCO)nc3c(NCc4ccc(OC)c(OC)c4)nc(OCCO)nc23)cc1OC
inhibition at 1 µM [1]: 57% | Reduction [2]: 23%

OCCN(CCO)c1nc(NCc2ccccc2)c2nc(N(CCO)CCO)nc(NCc3ccccc3)c2n1
inhibition at 1 µM [1]: 38% | Reduction [2]: 45%

COc1ccc(CN(C)c2nc(OCCCO)nc3c(N(C)Cc4ccc(OC)cc4)nc(OCCCO)nc23)cc1
inhibition at 1 µM [1]: 69% | Reduction [2]: 53%

COc1ccc(CNc2nc(NCC(C)O)nc3c(NCc4ccc(OC)cc4)nc(NCC(C)O)nc23)cc1 (stereo not given)
inhibition at 1 µM [1]: 57% | Reduction [2]: 45%

OCCN(CCO)c1nc(N2CCCCC2)c2nc(N(CCO)CCO)nc(N3CCCCC3)c2n1 [DIPYRIDAMOLE]
inhibition at 1 µM [1]: 89% | Reduction [2]: 96%

COc1ccc(CN(C)c2nc(NCC(C)O)nc3c(N(C)Cc4ccc(OC)c(OC)c4)nc(NCC(C)O)nc23)cc1OC (stereo not given)
inhibition at 1 µM [1]: 73% | Reduction [2]: 22%

OCC(O)COc1nc(N2CCCCC2)c2nc(OCC(O)CO)nc(N3CCCCC3)c2n1 (stereo not given)
inhibition at 10 µM [3]: 37% | Reduction [2]: 22%

COc1ccc(CNc2nc(N(CCO)CCO)nc3c(NCc4ccc(OC)cc4)nc(N(CCO)CCO)nc23)cc1
inhibition at 1 µM [1]: 56% | Reduction [2]: 18%

COc1ccc(CNc2nc(N(CCO)CCO)nc3c(NCc4ccc(OC)c(OC)c4)nc(N(CCO)CCO)nc23)cc1OC
inhibition at 1 µM [1]: 71% | Reduction [2]: 26%

COc1ccc(CN(C)c2nc(NCC(C)O)nc3c(N(C)Cc4ccc(OC)cc4)nc(NCC(C)O)nc23)cc1 (stereo not given)
inhibition at 1 µM [1]: 39% | Reduction [2]: 86%

COc1ccc(CN(C)c2nc(OCCO)nc3c(N(C)Cc4ccc(OC)cc4)nc(OCCO)nc23)cc1
inhibition at 1 µM [1]: 73% | Reduction [2]: 77%

COc1ccc(CNc2nc(OCCCO)nc3c(NCc4ccc(OC)cc4)nc(OCCCO)nc23)cc1
inhibition at 1 µM [1]: 66% | Reduction [2]: 26%

COc1ccc(CNc2nc(NCC(C)O)nc3c(NCc4ccc(OC)c(OC)c4)nc(NCC(C)O)nc23)cc1OC (stereo not given)
inhibition at 1 µM [1]: 85% | Reduction [2]: 14%

COc1ccc(CNc2nc(OCCO)nc3c(NCc4ccc(OC)cc4)nc(OCCO)nc23)cc1
inhibition at 1 µM [1]: 40% | Reduction [2]: 30%
